Data on three compounds can be found in US20260182574A1 (priority 2022, published 2026).

Experiment [1] has as its system Botrytis cinerea. Kind of experiment: Long lasting control of Botrytis cinerea on leaves of green pepper (green house). Particulars: 125 ppm; green pepper sprayed 7 days before inoculation; assessed after 5 days; untreated plants 90% infected. Format: in vivo. As for the experimental part: (§1) The compound was dissolved in a mixture of acetone and/or dimethylsulfoxide and the wetting agent/emulsifier Wettol, which is based on ethoxylated alkylphenoles, in a ratio (volume) solvent-emulsifier of 99 to 1 to give a total volume of 5 ml. Subsequently, water was added to total volume of 100 ml.
(§2) This stock solution was then diluted with the described solvent-emulsifier-water mixture to the final concentration given in the table below.
Young seedlings of green pepper were grown in pots to the 4 to 5 leaf stage. These plants were sprayed to run-off with previously described spray solution, containing the concentration of active ingredient or mixture mentioned in the table below. The plants were then cultivated in the greenhouse for 7 days and then inoculated with an aqueous biomalt or DOB solution containing the spore suspension of Botrytis cinerea. Then the plants were immediately transferred to a humid chamber. After 5 days at 22 to 24 °C and a saturated relative humidity, the extent of fungal attack on the leaves was visually assessed as % diseased leaf area.

Experiment [2] has as its system Sclerotinia sclerotiorum. Kind of experiment: Preventative fungicidal control of white mold on cabbage caused by Sclerotinia sclerotiorum (green house). Format: in vivo. Particulars: 125 ppm; cabbage sprayed 1 day before inoculation; assessed after 8 days; untreated plants 80% infected. The procedure: as §1, §2
Cabagges were grown in pots to the 13 to 14 leaf stage. These plants were sprayed to run-off with previously described spray solution, containing the concentration of active ingredient or their mixture mentioned in the table below. The plants could air-dry. The next day the cabbage leaves were inoculated with 50 μl of a mixture of ground petals, methylcellulose, water, and yeast-bactopeptone media (includes spores of Sclerotinia sclerotiorum). After 8 days at 21° C. and a relative humidity of 60% the extent of fungal attack on the leaves were visually assessed as % diseased leaf area.

Experiment [3] concerns Botrytis cinerea. Put plainly: Activity against the grey mold Botrytis cinerea in the microtiterplate test. It counts as cell-based. As to conditions: 31 ppm; microtiter plate, 405 nm, 7 days after inoculation.
Experiment [4] concerns Cercospora sojina. Kind of experiment: Activity against Cercospora sojina in the microtiterplate test. It counts as cell-based. Particulars: 31 ppm; microtiter plate.
The test system of experiment [5] is Corynespora cassiicola G413A mutant. Kind of experiment: Activity against Corynespora cassiicola G413A mutant in the microtiterplate test. Particulars: 31 ppm; microtiter plate; G413A mutant isolates. It counts as cell-based.
The test system of experiment [6] is Corynespora zeae. Put plainly: Activity against Corynespora zeae in the microtiterplate test. Particulars: 31 ppm; microtiter plate. It counts as cell-based.

In the case of `CN1CC2(CC2)N=C(c2cnc3c(F)cccc3c2)c2cccc(F)c21` [Ex-17], the figures for the “growth of the pathogen (% diseased leaf area)” value in experiment [1] and in experiment [2] were “up to 15%” and “up to 8%”, respectively. Moreover, the “growth of the pathogen (relative to compound-free control = 100%)” value in experiment [3] turned out to be 4%; in experiment [4] it was 6%; in experiment [5], 11%.
For `CC1(C)C(=O)N=C(c2cnc3c(F)cccc3c2)c2ccccc2N1C#N` [Ex-12], in experiment [3], the “growth of the pathogen (relative to compound-free control = 100%)” value is given as 4%.
Turning to `CN1c2ccccc2C(c2cnc3c(F)cccc3c2)=NC(=O)C1(C)C` [Ex-10], the “growth of the pathogen (relative to compound-free control = 100%)” value in experiment [3] is recorded as 4%; in experiment [6] it was 8%.
